Assay [1] can be described thus: Fe3+ reducing ability (ferricyanide method, absorbance 700 nm). Particulars: 30 µg/mL; absorbance at 700 nm. On the procedure:
The Fe^3+ reducing ability of Schiff bases (10–15) and hydrazineylidene derivatives (16 and 17) were tested according to our prior studies. For this purpose, various concentrations of compounds (10–17) were transferred into test tubes, and 2.5 mL of phosphate buffer (0.2 M, pH 6.6) and 2.5 mL (1%) of potassium ferricyanide [K3Fe(CN)6] solutions were added. Then, the mixture was vortexed and incubated at 50 °C for 20 min. A portion of trichloroacetic acid (2.5 mL, 10%) was added. Then, 2.5 mL of upper layers of the solutions were mixed with 2.5 mL distilled water and 0.5 mL FeCl3 (0.1%). The absorbance values of the reducing effects of compounds (10–17) and standards were spectrophotometrically recorded at 700 nm.

The nature of assay [2]: DPPH radical scavenging (Blois method). Particulars: half maximal scavenging concentration. On the procedure: DPPH· and ABTS^•+ scavenging methods are the most widely used spectrophotometric methods to determine the antioxidant capacity of newly synthesized compounds. The DPPH‧ scavenging effect of Schiff bases (10–15) and hydrazineylidene derivatives (16 and 17) was realized according to the Blois method. Briefly, 1 mL of DPPH^• solution (0.1 mM), which was prepared in ethanol and was a violet/purple color […], was added to the Schiff base (10–15) and hydrazineylidene derivative (16 and 17) samples at different concentrations (10–30 μg/mL). Then, they were incubated at room temperature for 30 min and their absorbance values were recorded at 517 nm.

Assay [3] is described as follows: Fe3+-TPTZ complex reducing ability (absorbance 593 nm). The following applies: 30 µg/mL; absorbance at 593 nm. On the procedure: The Fe^3+-TPTZ complex reducing ability of Schiff bases (10–15) and hydrazineylidene derivatives (16 and 17) was realized according to a previous study. For this, 2.25 mL of TPTZ solution (10 mM in 40 mM HCl) was freshly prepared, then added to 2.5 mL of acetate buffer (0.3 M, pH 3.6) and 2.25 mL of FeCl3 solution (20 mM). Then, different concentrations of Schiff bases (10–15) and hydrazineylidene derivatives (16 and 17) were transferred and incubated at 37 °C for 30 min. Finally, the absorbance values of the reducing power of Schiff bases (10–15) and hydrazineylidene derivatives (16 and 17) and standards were spectrophotometrically measured at 593 nm.

For a further assay, the target named is hCA II (Homo sapiens, UniProt P00918). In words: hCA II inhibition, esterase assay (Verpoorte). It is filed as biochemical. The following applies: for IC50: read-out: IC50 hCA II.
Assay [4] is described as follows: Cu2+ reducing ability (neocuproine method, absorbance 450 nm). The following applies: 30 µg/mL; absorbance at 450 nm. On the procedure: The Cu^2+ reducing ability of Schiff bases (10–15) and hydrazineylidene derivatives (16 and 17) were detected according to a prior study. For this purpose, 0.25 mL of CuCl2 solution (10 mM), 0.25 mL of ethanolic neocuproine solution (7.5 × 10^−3 M), and 250 μL of NH4Ac buffer solution (1.0 M) in different concentrations (10–30 μg/mL) were transferred to test tubes containing Schiff base (10–15) and hydrazineylidene derivative (16 and 17) samples. The total volume was made up to 2 mL with distilled water, and their absorbance values were recorded at 450 nm after 30 min of incubation.

The target of assay [5] is T1, hCA I (Homo sapiens, UniProt P00915).
T1 sequence (P00915 whole entry): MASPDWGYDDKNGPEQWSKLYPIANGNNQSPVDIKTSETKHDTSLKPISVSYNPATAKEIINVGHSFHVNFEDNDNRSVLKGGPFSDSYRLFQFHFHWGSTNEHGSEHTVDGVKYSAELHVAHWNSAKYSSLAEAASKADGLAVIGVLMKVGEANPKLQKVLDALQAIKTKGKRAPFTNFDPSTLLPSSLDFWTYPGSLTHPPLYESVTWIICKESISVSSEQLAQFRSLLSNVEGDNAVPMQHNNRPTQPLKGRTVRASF
From the text: (§2) Both isoforms’ activity was spectrophotometrically determined according to the Verpoorte assay [47]. […] All experiments of the CA inhibition assay were repeated three times and the results are given as the arithmetic mean of these repetitions.
The target of a further assay is BChE (Homo sapiens, UniProt P06276). Nature of the assay: biochemical. The following applies: read-out: IC50 BChE. On the procedure:
(§1) Acetylthiocholine iodide/butyrylthiocholine iodide (AChI)/BChI) and 5,5′-dithiobis(2-nitro-benzoic acid) (DTNB) were used as the substrate pattern for both cholinergic reactions. […] Then, the samples were incubated at 25 °C for 15 min, and 50 μL of DTNB solution (0.5 mM,) was transferred.

For the next assay, the target named is AChE (Homo sapiens, UniProt P22303). In words: biochemical. Particulars: for IC50: read-out: IC50 AChE. The procedure:
as §1

The nature of assay [6]: ABTS radical cation scavenging. The procedure: The ABTS radical cation scavenging assay was used as a way to calculate antioxidant capacity based on this radical scavenging ability. Firstly, an aqueous solution of ABTS (7.0 mM) was oxidized by oxidants such as K2S2O8 (2.5 mM) for the production of its radical cation (ABTS^•+). […] Then, 1 mL of ABTS^•+ solution was added to 3 mL Schiff base (10–15) and hydrazineylidene derivative (16 and 17) solutions at different concentrations (10–30 μg/mL).

For assay [7], the target named is T1, hCA I. Nature of the assay: biochemical.
From the text: as §2

SMILES strings stand for the structures. “And” between values parts separate entries of the source, which are not always exact repeats. Identical values can stand only once.

Chain of AChE (P22303 32-614): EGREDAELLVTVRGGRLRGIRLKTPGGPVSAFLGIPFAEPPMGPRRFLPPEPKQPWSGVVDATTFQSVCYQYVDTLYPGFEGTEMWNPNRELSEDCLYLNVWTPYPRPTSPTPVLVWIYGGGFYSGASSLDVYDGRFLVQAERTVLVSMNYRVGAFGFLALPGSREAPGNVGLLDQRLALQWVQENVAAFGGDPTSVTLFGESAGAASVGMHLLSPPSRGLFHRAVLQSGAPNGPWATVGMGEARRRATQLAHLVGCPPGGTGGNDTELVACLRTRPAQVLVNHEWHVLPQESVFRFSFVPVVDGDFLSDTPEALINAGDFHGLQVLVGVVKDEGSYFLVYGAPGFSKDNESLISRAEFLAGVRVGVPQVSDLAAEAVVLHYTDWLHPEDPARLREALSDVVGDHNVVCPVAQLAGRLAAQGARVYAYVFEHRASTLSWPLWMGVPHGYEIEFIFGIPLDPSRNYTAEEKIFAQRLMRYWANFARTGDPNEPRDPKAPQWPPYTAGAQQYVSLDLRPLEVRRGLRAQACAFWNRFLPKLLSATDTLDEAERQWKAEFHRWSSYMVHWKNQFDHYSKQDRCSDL
Chain of BChE (P06276 29-602): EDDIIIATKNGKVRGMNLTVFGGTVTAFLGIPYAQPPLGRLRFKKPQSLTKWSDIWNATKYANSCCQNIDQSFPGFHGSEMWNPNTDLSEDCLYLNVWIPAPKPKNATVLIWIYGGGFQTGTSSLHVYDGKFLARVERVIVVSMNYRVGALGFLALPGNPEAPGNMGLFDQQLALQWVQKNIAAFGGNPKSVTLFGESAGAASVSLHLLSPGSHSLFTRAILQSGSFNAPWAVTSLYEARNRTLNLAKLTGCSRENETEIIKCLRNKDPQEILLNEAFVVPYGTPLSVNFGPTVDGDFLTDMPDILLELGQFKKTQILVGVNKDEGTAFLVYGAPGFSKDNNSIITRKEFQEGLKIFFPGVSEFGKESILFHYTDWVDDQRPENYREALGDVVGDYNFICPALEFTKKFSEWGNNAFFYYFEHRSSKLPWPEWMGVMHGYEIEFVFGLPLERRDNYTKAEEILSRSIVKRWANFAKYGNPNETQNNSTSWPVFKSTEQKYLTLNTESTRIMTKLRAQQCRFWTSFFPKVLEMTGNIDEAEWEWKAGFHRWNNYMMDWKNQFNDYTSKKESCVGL
From the text for hCA II: as §2

On to `COc1ccc(/C=N/c2ccc(Br)cc2)cc1O` [Compound 13, (E)-5-(((4-Bromophenyl)imino)methyl)-2-methoxyphenol], for which, in assay [1], the “Fe^3+ Reducing λ700” value was 0.198 ± 0.004 absorbance. Besides, the “DPPH^• Scavenging IC50” value in assay [2] is 87.721 µg/mL and 87.72 µg/mL. In [3], the “Fe^3+-TPTZ Reducing λ593” value is 0.701 ± 0.003 absorbance. Also, at hCA II, the Ki was 67.6 ± 15.7 nM. For the same compound, the IC50 at hCA II turned out to be 77 nM; on BChE, 28.9 nM; on AChE, 17.8 nM; on hCA I [7], 63 nM. In addition, the “Cu^2+ Reducing λ450” value in [4] is recorded as 0.875 ± 0.020 absorbance. Moreover, the “Selectivity Index (hCA I/hCA II)” value at hCA I [5] turned out to be 0.483. Further, the “Selectivity Index (AChE/BChE)” value on AChE came to 0.615. Further, in [6], the “ABTS^•+ Scavenging IC50” value came out at 34.65 µg/mL.

For `COc1ccc(/C=N/c2ccccc2O)cc1O` [Compound 11, (E)-5-(((2-Hydroxyphenyl)imino)methyl)-2-methoxyphenol], the “Fe^3+ Reducing λ700” value in assay [1] amounted to 2.591 ± 0.010 absorbance. In [2], the “DPPH^• Scavenging IC50” value was 12.157 µg/mL and 12.15 µg/mL. Moreover, in [3], the “Fe^3+-TPTZ Reducing λ593” value stood at 2.183 ± 0.016 absorbance. The IC50 at hCA II turned out to be 88.2 nM; at BChE it was 34.6 nM; at AChE, 22.4 nM; against hCA I [7], 86.6 nM. The “Cu^2+ Reducing λ450” value in assay [4] came to 2.332 ± 0.018 absorbance. In addition, the “Selectivity Index (hCA I/hCA II)” value on hCA I [5] worked out at 0.730. Besides, the “Selectivity Index (AChE/BChE)” value at AChE was found to be 0.645. For the same compound, in [6], the “ABTS^•+ Scavenging IC50” value is 4.386 µg/mL and 4.38 µg/mL.

Consider `COc1ccc(/C=N/N=C(c2ccccc2)c2ccccc2)cc1O` [Compound 16, (E)-5-(((Diphenylmethylene)hydrazineylidene)methyl)-2-methoxyphenol], for which the “Fe^3+ Reducing λ700” value in assay [1] amounted to 0.311 ± 0.018 absorbance. In assay [2], the “DPPH^• Scavenging IC50” value was 30.13 µg/mL. In addition, the “Fe^3+-TPTZ Reducing λ593” value in assay [3] is 1.069 ± 0.057 absorbance. Moreover, the IC50 at hCA II came out at 112 nM; on BChE it was 25.7 nM; on AChE it was 16.1 nM; on hCA I [7], 69.3 nM. In addition, in [4], the “Cu^2+ Reducing λ450” value came to 1.266 ± 0.029 absorbance. On hCA I [5], the “Selectivity Index (hCA I/hCA II)” value was 0.326. In addition, the “Selectivity Index (AChE/BChE)” value on AChE came to 0.627. In addition, the “ABTS^•+ Scavenging IC50” value in assay [6] was 11.745 µg/mL and 11.74 µg/mL.

Turning to `COc1ccc(/C=N/Cc2ccccc2)cc1O` [Compound 15, (E)-5-((Benzylimino)methyl)-2-methoxyphenol], the “Fe^3+ Reducing λ700” value in assay [1] is given as 0.363 ± 0.021 absorbance. Further, in [2], the “DPPH^• Scavenging IC50” value stood at 99.01 µg/mL. Further, the “Fe^3+-TPTZ Reducing λ593” value in assay [3] amounted to 0.646 ± 0.034 absorbance. Further, the IC50 at hCA II is 139 nM; at BChE it was 36.5 nM; at AChE it was 25.7 nM; against hCA I [7], 99 nM. In addition, the “Cu^2+ Reducing λ450” value in [4] stood at 0.803 ± 0.013 absorbance. Besides, the “Selectivity Index (hCA I/hCA II)” value on hCA I [5] turned out to be 0.521. Moreover, the “Selectivity Index (AChE/BChE)” value on AChE amounted to 0.704. Also, in [6], the “ABTS^•+ Scavenging IC50” value was 23.896 µg/mL and 23.89 µg/mL.

With `COc1ccc(/C=N/Nc2ccccc2)cc1O` [Compound 17, (E)-2-Methoxy-5-((2-phenylhydrazineylidene)methyl)phenol], in [1], the “Fe^3+ Reducing λ700” value worked out at 2.391 ± 0.037 absorbance. For the same compound, in [2], the “DPPH^• Scavenging IC50” value was 14.744 µg/mL and 14.74 µg/mL. The “Fe^3+-TPTZ Reducing λ593” value in assay [3] amounted to 2.121 ± 0.014 absorbance. In addition, the IC50 is 116 nM at hCA II, 19.8 nM at BChE, 23.9 nM on AChE and 96.2 nM against hCA I [7]. Further, the “Cu^2+ Reducing λ450” value in [4] was found to be 2.026 ± 0.016 absorbance. The “Selectivity Index (hCA I/hCA II)” value at hCA I [5] worked out at 0.247. At AChE, the “Selectivity Index (AChE/BChE)” value is 1.206. In addition, the “ABTS^•+ Scavenging IC50” value in assay [6] is 4.304 µg/mL and 4.30 µg/mL.

`COc1ccc(/C=N/c2ccc(F)cc2)cc1O` [Compound 12, (E)-5-(((4-Fluorophenyl)imino)methyl)-2-methoxyphenol]: the “Fe^3+ Reducing λ700” value in assay [1] amounted to 0.294 ± 0.008 absorbance. Besides, the “DPPH^• Scavenging IC50” value in assay [2] worked out at 57.75 µg/mL. Moreover, the “Fe^3+-TPTZ Reducing λ593” value in assay [3] is recorded as 0.806 ± 0.003 absorbance. Further, the concentration for half-maximal inhibition (IC50) at hCA II worked out at 99 nM; on BChE, 33 nM; at AChE, 23.1 nM; against hCA I [7] it was 61.9 nM. Further, the “Cu^2+ Reducing λ450” value in assay [4] stood at 0.951 ± 0.010 absorbance. The “Selectivity Index (hCA I/hCA II)” value on hCA I [5] came out at 0.424. In addition, the “Selectivity Index (AChE/BChE)” value at AChE is listed as 0.700. Moreover, the “ABTS^•+ Scavenging IC50” value in assay [6] was determined as 27.72 µg/mL.

The values above are taken from paper PMC10051454, “Synthesis of Schiff Bases Containing Phenol Rings and Investigation of Their Antioxidant Capacity, Anticholinesterase, Butyrylcholinesterase, and Carbonic Anhydrase Inhibition Properties” (Pharmaceutics, 2023).
